Experimental findings from US9562035B2, “Benzamide derivative useful as FASN inhibitors for the treatment of cancer” (Janssen Pharmaceutica NV, priority 2013, dated 2017) are described below.

The target in experiment [1] is T1, hFASN enzyme (full length) (Homo sapiens, UniProt P49327).
T1 construct: 10 μL hFASN enzyme (full length, 300 ng, purified in house); made in house
Kind of experiment: Fatty Acid Synthase (FASN) Inhibition Scintillation Proximity Assay. It is filed as biochemical. To be noted: for IC50: mean where tested more than once, ~ = standard error of pIC50 larger than 0.5; for inhibition at 10 µM: read-out: FASN % Effect @1E−05M. The procedure, abridged:
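Purified full-length human FASN (300 ng) incubated 60 min at room temperature with NADPH, [3H]-acetyl-CoA and malonyl-CoA in 100 mM KH2PO4 pH 7.5, 1 mM DTT; compound at 30 μM to 0.01 μM. [3H]-palmitate captured by SPA imaging beads; IC50 from 4-parameter fit, reported as pIC50.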
(In general: Scintillation proximity formats need no separation of bound from free tracer.)

The target in experiment [2] is T2, FASN Keto-reductase Domain (Homo sapiens, UniProt P49327).
T2 construct: 10 μL hFASN enzyme (full length, 300 ng, purified in house) and 360 μM NADPH; made in house
Kind of experiment: Fatty Acid Synthase Keto-Reductase Domain (FASN KR) Inhibition. It counts as biochemical. To be noted: mean where tested more than once; read-out: FASN K-R Domain pIC50 (converted). The procedure, abridged:
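Full-length human FASN (300 ng) in 100 mM KH2PO4 pH 7.5 with 360 μM NADPH and 180 mM ethyl acetoacetate (stock); A340 decrease read over 20 min at room temperature.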

Experiment [3] has as its system A2780 ovarian cells. Kind of experiment: A2780 Ovarian Cell Proliferation Assay in Lipid Reduced Medium, without Palmitate. To be noted: Homo sapiens, A2780; lipid reduced medium, without palmitate, 96 h, MTT; read-out: Proliferation A2780 w/o Palmitate pIC50 (converted). It counts as cell-based. The gist of the method: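 A2780 cells were seeded in 10% FCS medium and switched next day to 10% lipid-reduced serum without palmitate. Compounds at 0.01–30 μM were added with 0.2% DMSO, 0.2% fatty-acid-free BSA and 0.25% ethanol final. After 96 h, MTT absorbance at 544 nm was normalized to plate controls, and IC50/pIC50 came from a 4-parameter logistic fit.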

In experiment [4] the test system is A2780 ovarian cells. Kind of experiment: A2780 Ovarian Cell Proliferation Assay in Lipid Reduced Medium, with Palmitate (control). It is filed as cell-based. To be noted: Homo sapiens, A2780; lipid reduced medium, 25 μM palmitate, 96 h, MTT; read-out: Proliferation A2780 with Palmitate pIC50 (converted). The gist of the method: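 A2780 cells were seeded in RPMI1640 with 10% FCS, then switched next day to medium with 10% lipid-reduced serum. Compound was added with final 25 μM palmitate, 0.2% fatty-acid-free BSA and 0.2% DMSO, and incubated 96 h at 37 °C. Read-out was MTT absorbance at 544 nm; pIC50 = −log(IC50) from curve fit.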

T2 sequence (P49327 whole entry, the tested form may be a part): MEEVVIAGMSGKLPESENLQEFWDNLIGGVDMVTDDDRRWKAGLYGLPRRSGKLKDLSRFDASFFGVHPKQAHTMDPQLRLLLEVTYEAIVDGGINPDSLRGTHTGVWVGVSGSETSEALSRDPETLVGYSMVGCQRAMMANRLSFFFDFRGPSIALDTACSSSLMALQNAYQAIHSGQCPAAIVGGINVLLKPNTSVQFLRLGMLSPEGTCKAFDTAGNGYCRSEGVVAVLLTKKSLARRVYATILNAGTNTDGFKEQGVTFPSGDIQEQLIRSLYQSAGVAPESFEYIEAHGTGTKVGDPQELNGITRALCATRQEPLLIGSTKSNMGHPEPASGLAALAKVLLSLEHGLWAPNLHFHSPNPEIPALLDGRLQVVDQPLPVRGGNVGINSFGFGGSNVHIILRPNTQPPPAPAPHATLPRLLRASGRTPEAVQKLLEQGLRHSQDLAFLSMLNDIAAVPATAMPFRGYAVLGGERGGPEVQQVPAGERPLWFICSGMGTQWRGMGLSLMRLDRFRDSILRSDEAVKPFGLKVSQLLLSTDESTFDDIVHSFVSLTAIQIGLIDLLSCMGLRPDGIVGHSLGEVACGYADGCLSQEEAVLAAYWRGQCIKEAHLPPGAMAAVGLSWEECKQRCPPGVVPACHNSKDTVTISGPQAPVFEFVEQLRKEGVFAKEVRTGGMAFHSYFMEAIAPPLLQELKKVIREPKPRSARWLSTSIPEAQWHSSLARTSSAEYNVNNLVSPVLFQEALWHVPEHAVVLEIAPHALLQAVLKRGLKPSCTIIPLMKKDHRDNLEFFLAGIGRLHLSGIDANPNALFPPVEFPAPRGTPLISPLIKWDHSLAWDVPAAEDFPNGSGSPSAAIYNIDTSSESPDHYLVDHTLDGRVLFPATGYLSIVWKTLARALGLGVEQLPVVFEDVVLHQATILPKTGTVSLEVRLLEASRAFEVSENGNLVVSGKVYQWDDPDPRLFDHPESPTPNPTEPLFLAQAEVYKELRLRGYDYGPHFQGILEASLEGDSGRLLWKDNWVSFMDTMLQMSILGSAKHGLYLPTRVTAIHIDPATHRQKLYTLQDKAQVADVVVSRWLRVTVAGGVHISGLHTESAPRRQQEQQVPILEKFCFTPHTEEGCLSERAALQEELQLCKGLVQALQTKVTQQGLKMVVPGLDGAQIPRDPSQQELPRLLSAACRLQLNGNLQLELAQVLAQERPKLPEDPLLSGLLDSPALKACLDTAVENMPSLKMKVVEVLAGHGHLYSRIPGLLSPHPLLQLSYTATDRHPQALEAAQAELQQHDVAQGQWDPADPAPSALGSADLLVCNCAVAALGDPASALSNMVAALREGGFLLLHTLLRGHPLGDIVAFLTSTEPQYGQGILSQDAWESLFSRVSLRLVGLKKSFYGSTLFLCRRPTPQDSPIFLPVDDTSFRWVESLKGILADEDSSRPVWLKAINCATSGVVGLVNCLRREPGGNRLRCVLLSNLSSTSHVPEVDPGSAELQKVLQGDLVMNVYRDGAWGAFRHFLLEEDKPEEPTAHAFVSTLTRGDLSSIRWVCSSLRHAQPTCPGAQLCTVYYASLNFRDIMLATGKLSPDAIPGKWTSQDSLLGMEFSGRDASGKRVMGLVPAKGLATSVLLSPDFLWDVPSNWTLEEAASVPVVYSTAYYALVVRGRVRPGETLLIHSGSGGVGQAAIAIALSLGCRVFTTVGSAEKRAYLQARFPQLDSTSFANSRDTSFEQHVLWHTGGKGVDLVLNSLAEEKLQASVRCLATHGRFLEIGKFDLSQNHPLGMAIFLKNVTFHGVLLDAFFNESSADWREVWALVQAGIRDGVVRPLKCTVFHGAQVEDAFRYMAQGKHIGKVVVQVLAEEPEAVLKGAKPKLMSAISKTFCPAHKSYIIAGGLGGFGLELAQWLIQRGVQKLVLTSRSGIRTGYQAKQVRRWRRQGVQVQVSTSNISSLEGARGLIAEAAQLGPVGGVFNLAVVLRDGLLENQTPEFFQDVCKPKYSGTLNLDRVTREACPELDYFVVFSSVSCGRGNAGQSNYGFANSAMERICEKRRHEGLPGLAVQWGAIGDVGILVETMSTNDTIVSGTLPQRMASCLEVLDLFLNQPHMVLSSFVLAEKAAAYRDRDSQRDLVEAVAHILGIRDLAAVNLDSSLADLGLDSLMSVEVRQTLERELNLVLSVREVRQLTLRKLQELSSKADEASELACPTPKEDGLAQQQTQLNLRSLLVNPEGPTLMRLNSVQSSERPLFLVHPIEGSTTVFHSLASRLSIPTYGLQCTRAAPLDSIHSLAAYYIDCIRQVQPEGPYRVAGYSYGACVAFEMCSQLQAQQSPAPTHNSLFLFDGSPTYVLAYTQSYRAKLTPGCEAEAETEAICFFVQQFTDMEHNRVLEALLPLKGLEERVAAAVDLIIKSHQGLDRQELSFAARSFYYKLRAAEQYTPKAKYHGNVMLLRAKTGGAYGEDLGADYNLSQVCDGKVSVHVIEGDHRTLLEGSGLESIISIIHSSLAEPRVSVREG
T1 sequence (P49327 whole entry): as the sequence (P49327 whole entry, the tested form may be a part) above

`CCN1CCC(C(=O)Nc2cc(C(=O)N3CCC(c4ccc(-c5cnn(C)c5)cc4)CC3)ccc2C)C1` (stereo not shown) [Compound 185, 1-ethyl-N-(2-methyl-5-(4-(4-(1-methyl-1H-pyrazol-4-yl)phenyl)piperidine-1-carbonyl)phenyl)pyrrolidine-3-carboxamide]: the IC50 in experiment [1] is 251 nM; in experiment [2], 501 nM; in experiment [3] it was around 501 nM; in experiment [4], above 10000 nM. Besides, in experiment [1], the inhibition at 10 µM was 101%.

For `Cc1ccc(C(=O)N2CCC(c3ccc(-c4cnn(C)c4)cc3)CC2)cc1NC(=O)c1nccs1` [Compound 198, N-(2-methyl-5-(4-(4-(1-methyl-1H-pyrazol-4-yl)phenyl)piperidine-1-carbonyl)phenyl)thiazole-2-carboxamide], the IC50 in experiment [1] is 135 nM; in experiment [2], 372 nM; in experiment [3], 603 nM; in experiment [4] it was above 10000 nM. The inhibition at 10 µM in experiment [1] is 100%.

Consider `CCCCC(C)N1CC(C(=O)Nc2cc(C(=O)N3CCC(c4ccc(-c5cnn(C)c5)cc4)CC3)ccc2C)C1` (stereo not shown) [Compound 196, 1-(hexan-2-yl)-N-(2-methyl-5-(4-(4-(1-methyl-1H-pyrazol-4-yl)phenyl)piperidine-1-carbonyl)phenyl)azetidine-3-carboxamide], for which the IC50 in experiment [1] was 162 nM; in experiment [2] it was 282 nM; in experiment [3], 407 nM; in experiment [4], around 6170 nM. For the same compound, in experiment [1], the inhibition at 10 µM came out at 97%.

As to `Cc1ccc(C(=O)N2CCC(c3ccc(-c4cnn(C)c4)cc3)CC2)cc1NC(=O)C1CCNC1` (stereo not shown) [Compound 170, N-(2-methyl-5-(4-(4-(1-methyl-1H-pyrazol-4-yl)phenyl)piperidine-1-carbonyl)phenyl)pyrrolidine-3-carboxamide], the IC50 in experiment [1] was 57.5 nM; in experiment [2], 339 nM; in experiment [3], 302 nM; in experiment [4] it was above 10000 nM. Further, the inhibition at 10 µM in experiment [1] was 112%.

Consider `Cc1ccc(C(=O)N2CCC(c3ccc(-c4cnn(C)c4)cc3)CC2)cc1NC(=O)C1CN(C2CCCCC2)C1` [Compound 191, 1-cyclohexyl-N-(2-methyl-5-(4-(4-(1-methyl-1H-pyrazol-4-yl)phenyl)piperidine-1-carbonyl)phenyl)azetidine-3-carboxamide], for which the IC50 in experiment [1] was 69.2 nM; in experiment [2] it was 191 nM; in experiment [3], 141 nM; in experiment [4], 9330 nM. Further, the inhibition at 10 µM in experiment [1] came to 103%.

For the compound `Cc1ccc(C(=O)N2CCC(c3ccc(-c4cnn(C)c4C)cc3)CC2)cc1NC(=O)c1ccc(NC(C)C)nc1` [Compound 246, N-(5-(4-(4-(1,5-dimethyl-1H-pyrazol-4-yl)phenyl)piperidine-1-carbonyl)-2-methylphenyl)-6-(isopropylamino)nicotinamide], the IC50 was 53.7 nM in experiment [1], 245 nM in experiment [2], 112 nM in experiment [3] and 8320 nM in experiment [4]. For the same compound, in experiment [1], the inhibition at 10 µM amounted to 110%.

For the compound `Cc1ccc(C(=O)N2CC(c3ccc(-c4ccncc4)cc3)C2)cc1NC(=O)c1ccc(Cl)nc1` [Compound 3, 6-chloro-N-(2-methyl-5-(3-(4-(pyridin-4-yl)phenyl)azetidine-1-carbonyl)phenyl)nicotinamide], the IC50 in experiment [1] was 25.7 nM; in experiment [2] it was 64.6 nM; in experiment [3], 138 nM; in experiment [4], 5250 nM. Also, the inhibition at 10 µM in experiment [1] turned out to be 106%.

Regarding `Cc1ccc(C(=O)N2CCC(c3ccc(-c4cnn(C)c4)cc3)CC2)cc1NC(=O)C1CCN(C2CCCCC2)CC1` [Compound 177, 1-cyclohexyl-N-(2-methyl-5-(4-(4-(1-methyl-1H-pyrazol-4-yl)phenyl)piperidine-1-carbonyl)phenyl)piperidine-4-carboxamide], the IC50 is 25.7 nM in experiment [1], 50.1 nM in experiment [2], 13.8 nM in experiment [3] and above 10000 nM in experiment [4]. In experiment [1], the inhibition at 10 µM was found to be 112%.

On to `Cc1ccc(C(=O)N2CC(c3ccc(-c4ccc5c(cnn5C)c4)cc3)C2)cc1NC(=O)c1ccc(NC(C)C)nc1` [Compound 16, 6-(isopropylamino)-N-(2-methyl-5-(3-(4-(1-methyl-1H-indazol-5-yl)phenyl)azetidine-1-carbonyl)phenyl)nicotinamide], for which the IC50 was 95.5 nM in experiment [1], 95.5 nM in experiment [2], 1410 nM in experiment [3] and above 10000 nM in experiment [4]. Besides, in experiment [1], the inhibition at 10 µM was 106%.

In the case of `Cc1ccc(C(=O)N2CCC(c3ccc(-c4cnn(C)c4)cc3)CC2)cc1NC(=O)C1CCN(C2CCCC2)C1` (stereo not shown) [Compound 189, 1-cyclopentyl-N-(2-methyl-5-(4-(4-(1-methyl-1H-pyrazol-4-yl)phenyl)piperidine-1-carbonyl)phenyl)pyrrolidine-3-carboxamide], the IC50 in experiment [1] is 126 nM; in experiment [2], 309 nM; in experiment [3] it was 263 nM; in experiment [4], above 10000 nM. Moreover, in experiment [1], the inhibition at 10 µM stood at 102%.

With `Cc1ccc(C(=O)N2CC(c3ccc(-c4ccc5cnccc5c4)cc3)C2)cc1NC(=O)c1ccc(NC(C)C)nc1` [Compound 29, 6-(isopropylamino)-N-(5-(3-(4-(isoquinolin-6-yl)phenyl)azetidine-1-carbonyl)-2-methylphenyl)nicotinamide], the IC50 in experiment [1] is 33.9 nM; in experiment [2], 29.5 nM; in experiment [3], 174 nM; in experiment [4], above 15100 nM. In experiment [1], the inhibition at 10 µM was 103%.

For the compound `CCCCCCN1CCC(C(=O)Nc2cc(C(=O)N3CCC(c4ccc(-c5cnn(C)c5)cc4)CC3)ccc2C)C1` (stereo not shown) [Compound 218, 1-hexyl-N-(2-methyl-5-(4-(4-(1-methyl-1H-pyrazol-4-yl)phenyl)piperidine-1-carbonyl)phenyl)pyrrolidine-3-carboxamide], the IC50 was 145 nM in experiment [1], 389 nM in experiment [2], 407 nM in experiment [3] and 8510 nM in experiment [4]. For the same compound, the inhibition at 10 µM in experiment [1] turned out to be 105%.

For the compound `CC(C)Nc1ccc(C(=O)Nc2cc(C(=O)N3CC(c4ccc(-c5ccnn5C)cc4)C3)ccc2Cl)cn1` [Compound 108, N-(2-chloro-5-(3-(4-(1-methyl-1H-pyrazol-5-yl)phenyl)azetidine-1-carbonyl)phenyl)-6-(isopropylamino)nicotinamide], the IC50 in experiment [1] is 36.3 nM; in experiment [2] it was 60.3 nM; in experiment [3] it was 93.3 nM; in experiment [4] it was around 407 nM. Further, in experiment [1], the inhibition at 10 µM was found to be 103%.

Regarding `Cc1ccc(C(=O)N2CCC(c3ccc(-c4cnn(C5CCC5)c4)cc3)CC2)cc1NC(=O)c1ccc(NC(C)C)nc1` [Compound 248, N-(5-(4-(4-(1-cyclobutyl-1H-pyrazol-4-yl)phenyl)piperidine-1-carbonyl)-2-methylphenyl)-6-(isopropylamino)nicotinamide], the IC50 was 43.7 nM in experiment [1], 93.3 nM in experiment [2], 35.5 nM in experiment [3] and 3550 nM in experiment [4]. The inhibition at 10 µM in experiment [1] was 108%.

As for `CCC(=O)N[C@@H]1CC[C@H](C(=O)Nc2cc(C(=O)N3CCC(c4ccc(-c5ccnn5C)cc4)CC3)ccc2C)C1` [Compound 13, (1S,3R)—N-(2-methyl-5-(4-(4-(1-methyl-1H-pyrazol-5-yl)phenyl)piperidine-1-carbonyl)phenyl)-3-propionamidocyclopentanecarboxamide], the IC50 in experiment [1] is 126 nM; in experiment [2] it was 229 nM; in experiment [3], 603 nM; in experiment [4], above 10000 nM. Also, in experiment [1], the inhibition at 10 µM came to 99%.

Regarding `Cc1ccc(C(=O)N2CC(c3ccc(-c4cnn(C)c4)cc3)C2)cc1NC(=O)c1ccccn1` [Compound 80, N-(2-methyl-5-(3-(4-(1-methyl-1H-pyrazol-4-yl)phenyl)azetidine-1-carbonyl)phenyl)picolinamide], the IC50 in experiment [1] was 51.3 nM; in experiment [2] it was 234 nM; in experiment [3] it was 692 nM; in experiment [4] it was above 15100 nM. Moreover, the inhibition at 10 µM in experiment [1] was 110%.

Regarding `CCCCCCN1CC(C(=O)Nc2cc(C(=O)N3CCC(c4ccc(-c5cnn(C)c5)cc4)CC3)ccc2C)C1` [Compound 243, 1-hexyl-N-(2-methyl-5-(4-(4-(1-methyl-1H-pyrazol-4-yl)phenyl)piperidine-1-carbonyl)phenyl)azetidine-3-carboxamide], the IC50 is 129 nM in experiment [1], 186 nM in experiment [2], 240 nM in experiment [3] and 7080 nM in experiment [4]. In addition, the inhibition at 10 µM in experiment [1] came out at 105%.
